system: EE2-227 antibody; assay: Cross-reactivity test with the EE2-ELISA kit; format: binding, mouse; settings: from IC50 (50% degree of inhibition) of each estrogen's standard curve relative to EE2
Description: 100 μL/well of a quantification sample or the “EE2 standard solution” (both are 10% methanol solutions) and 100 μL/well of the “antigen-enzyme conjugate solution” were mixed on a “mixing microplate”.
The “mixed solution” prepared in (3) was pipetted into the “anti-EE2 monoclonal antibody-immobilized plate” in a volume of 100 μl/well and reacted at room temperature for 60 minutes.
The “coloration reagent” prepared in (7) was added in the volume of 100 μL/well, the mixture was reacted at room temperature for 30 minutes, and the “coloration-stop solution” was added in a volume of 100 μL/well to stop the reaction.
The absorbance was measured at a wavelength of 450 nm with a plate reader, and the concentration of EE2 in the sample was determined from a standard curve.
The EE2 concentration was plotted on the ordinate [sic], and the ratio of the absorbance at each EE2 concentration to the absorbance at the concentration of 0 μg/L EE2 (degree of inhibition, B/BO %) was plotted on the abscissa [sic].
For the estrogens shown in [Table 2], the respective standard curves were prepared in the same manner as in Example 4, and the EE2 concentration (IC50) at which the degree of inhibition was 50% was determined and the cross-reactivity was determined from the following equation, and the results are shown in [Table 2]. Cross-reactivity (%)=[…]

Row | SMILES | Cross-reactivity (%) of EE2-227 antibody
1 | COc1cc2c(cc1O)CC[C@@H]1[C@@H]2CC[C@]2(C)C(=O)CC[C@@H]12 [2-Methoxy E1] | <0.2%
2 | C[C@]12CC[C@@H]3c4ccc(O)cc4CC[C@H]3[C@@H]1C[C@H](O)[C@@H]2O [16-Epi-E3] | <0.2%
3 | C[C@]12CC[C@@H]3c4ccc(O)cc4CC[C@H]3[C@@H]1CC[C@@H]2O [17β-Estradiol (E2), 17β-Estradiol] | <0.2%
4 | C[C@]12CC[C@@H]3c4ccc(O[C@@H]5O[C@H](C(=O)O)[C@@H](O)[C@H](O)[C@H]5O)cc4CC[C@H]3[C@@H]1CC[C@@H]2O [E2-3-glucuronide] | <0.2%
5 | C[C@]12CC[C@@H]3c4ccc(OS(=O)(=O)O)cc4CC[C@H]3[C@@H]1CC[C@@H]2O[C@@H]1O[C@H](C(=O)O)[C@@H](O)[C@H](O)[C@H]1O [E2-3-sulfate-17-glucuronide] | <0.2%
6 | C[C@]12CC[C@@H]3c4ccc(O)cc4CC[C@H]3[C@@H]1CC[C@@H]2O[C@@H]1O[C@H](C(=O)O)[C@@H](O)[C@H](O)[C@H]1O [E2-17-glucuronide] | <0.2%
7 | C[C@]12CC[C@@H]3c4ccc(O)cc4CC[C@H]3[C@@H]1C[C@@H](O[C@@H]1O[C@H](C(=O)O)[C@@H](O)[C@H](O)[C@H]1O)[C@@H]2O [E3-16-glucuronide] | <0.2%
8 | C[C@]12CC[C@@H]3c4ccc(O)cc4CC[C@H]3[C@@H]1C[C@@H](O)[C@@H]2O [Estriol (E3), Estriol] | <0.2%
9 | C#C[C@]1(O)CC[C@H]2[C@@H]3CCc4cc(O)ccc4[C@H]3CC[C@@]21C [Ethynylestradiol (EE2), Ethynylestradiol] | 100.0%
